In paper PMC8725971, “Polycyclic nitrogen heterocycles as potential thymidine phosphorylase inhibitors: synthesis, biological evaluation, and molecular docking study” (Journal of Enzyme Inhibition and Medicinal Chemistry, 2021):
Values after ≈ are worked out from the molar mass of the structure shown. Where a name gives a salt, the structure may show the parent alone.

Legend:
[1] = biological target: T1, E. coli TP (Escherichia coli, UniProt P07650); test: In vitro E. coli thymidine phosphorylase inhibition, spectrophotometric assay at 290 nm; assay type: biochemical; settings: for inhibition at 15 µM: compound at 15 µM (maximum solubility); for inhibition at 25 µM: compound at 25 µM (maximum solubility); for inhibition at 30 µM: read-out: TP inhibition (%) at maximum solubility (30 µM)
T1 construct: purchased Sigma Aldrich T2807-1KU
Protocol: The adopted protocol is a modification of the original method developed by Khan[51]. TP activity and inhibition assays were based on the phosphorolysis of thymidine to thymine, this conversion results in a significant spectrophotometric decrease. At 290 nm and pH 7.4, thymidine has a higher extinction coefficient than thymine (Δε = −480 M^−1 cm^−1). The absorbance at 290 nm was measured every 2 min for 30 min in 96-well plates at 25 °C.
Thymidine was dissolved in buffer (3 mM). […] All experiments were conducted in triplicate.
The method reported by Khan et al.[51] has been adapted to a screening in 96-well plates (200 µL well, UV-Star® 96-well microplate, Greiner). Each well contained 160 µL of 50 mM KH2PO4 buffer (pH 7.4), 0.006 U of E. coli TP (T2807-1KU, Sigma Aldrich), and 20 µL of the tested compound solution. […] The decrease in absorbance due to conversion of thymidine to thymine was followed during 30 min (PowerWave HT Microplate Reader, Biotek) at 25 °C, with one measure every 2 min and a 30 s shaking before each measure.

[2] = Solubility in the incubation medium; settings: for solubility: aqueous buffer, kinetic from dmso stock; for Solubility (in words): incubation medium
[3] = compound at 50 µM, 2.5% DMSO, average of three measurements

T1 sequence (P07650 whole entry): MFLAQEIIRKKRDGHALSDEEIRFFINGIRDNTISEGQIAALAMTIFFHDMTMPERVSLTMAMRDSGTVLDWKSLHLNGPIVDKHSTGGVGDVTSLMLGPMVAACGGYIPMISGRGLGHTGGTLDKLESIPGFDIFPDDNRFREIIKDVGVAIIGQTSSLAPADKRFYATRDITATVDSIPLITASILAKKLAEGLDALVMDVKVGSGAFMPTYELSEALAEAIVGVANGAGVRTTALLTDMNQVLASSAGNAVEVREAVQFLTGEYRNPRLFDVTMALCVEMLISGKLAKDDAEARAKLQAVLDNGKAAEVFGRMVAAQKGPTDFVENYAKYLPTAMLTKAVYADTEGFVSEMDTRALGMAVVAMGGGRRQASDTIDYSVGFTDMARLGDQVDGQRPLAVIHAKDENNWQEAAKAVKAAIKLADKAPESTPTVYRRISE

Molecule | melting point | inhibition at 50 µM [1, 3] [%] | solubility [2] [µM] | also measured
O=C1c2cc3cc4c(cc3nc2C(=O)N1Cc1ccccc1)OCO4 [Compound 24, 6,7-Methylenedioxy-2-benzylpyrrolo[3,4-b]quinoline-1,3-dione] | 191 to 193 °C | 20 | – | –
O=C1c2cc3cc4c(cc3nc2C(=O)N1CCCCCCn1cc(Br)c(=O)[nH]c1=O)OCO4 [Compound 16b, 2-[6-(5-Bromo-2,4-dioxo-3,4-dihydropyrimidine-1(2H)-yl)hexyl]-6,7-methylenedioxy-2H-pyrrolo[3,4-b]quinoline-1,3-dione] | 282 to 283 °C | – | 12.5 (≈ 6.44 µg/mL) | inhibition at 12.5 µM ([1]; compound at 12.5 µM (maximum solubility), 2.5% DMSO): 30%; Solubility (in words) [2]: less soluble
O=c1[nH]c(=O)c2cc[nH]c2[nH]1 [Compound 7-DX, 7-Deazaxanthine, reference compound] | – | 60 | – | –
O=c1[nH]c(=O)c2cc3ccc4ccccc4c3nc2[nH]1 [Compound 2n, Benzo[h]pyrimido[4,5-b]quinoline-8,10(9H,11H)-dione)] | 326 to 328 °C | – | 15 (≈ 3.95 µg/mL) | inhibition at 15 µM ([1]; 2.5% DMSO): 0%; Solubility (in words) [2]: less soluble
O=C1c2cc3cc4c(cc3nc2C(=O)N1CCCCn1cc(Br)c(=O)[nH]c1=O)OCO4 [Compound 16a, 2-[4-(5-Bromo-2,4-dioxo-3,4-dihydropyrimidine-1(2H)-yl)butyl]-6,7-methylenedioxy-2H-pyrrolo[3,4-b]quinoline-1,3-dione] | 276 °C | – | 25 (≈ 12.2 µg/mL) | inhibition at 25 µM ([1]; 2.5% DMSO): 30%; Solubility (in words) [2]: less soluble
O=C1c2cc3cc4c(cc3nc2C(=O)N1Cc1[nH]c(=O)[nH]c(=O)c1I)OCO4 [Compound 23c, 2-[(5-Iodo-2,6-dioxo-1,2,3,6-tetrahydropyrimidin-4-yl)methyl]-6,7-methylenedioxy-1H-pyrrolo[3,4-b]quinoline-1,3(2H)-dione] | 365 to 367 °C (dec.) | 0 | – | –
O=c1[nH]c(=O)c2cc3ccc(Oc4ccccc4)cc3nc2[nH]1 [Compound 2e, 8-Phenoxypyrimido[4,5-b]quinoline-2,4(1H,3H)-dione] | 334 to 336 °C (dec.) | 30 | 50 (≈ 15.3 µg/mL) | –
Cc1cccc2cc3c(=O)[nH]c(=O)[nH]c3nc12 [Compound 2c] | – | 14 | – | –
Cc1ccc2nc3[nH]c(=O)[nH]c(=O)c3cc2c1 [Compound 2a] | – | 0 | – | –
COc1ccc(CN2C(=O)c3cc4c(=O)[nH]c(=O)[nH]c4nc3C2=O)c(OC)c1 [Compound 28b] | – | 0 | – | –
Cc1cn(CCCCN2C(=O)c3cc4cc5c(cc4nc3C2=O)OCO5)c(=O)[nH]c1=O [Compound 13a, 2-[4-(2,4-Dioxo-5-methyl-3,4-dihydropyrimidine-1(2H)-yl)butyl]-6,7-methylenedioxy-2H-pyrrolo[3,4-b]quinoline-1,3-dione] | 302 °C | 25 | – | –
O=c1[nH]c(=O)c2cc3cc(Cl)c(Cl)cc3nc2[nH]1 [Compound 2l, 7,8-Dichloropyrimido[4,5-b]quinoline-2,4(1H,3H)-dione] | > 360 °C | 71 | > 50 | IC50 ([1]; 300 µM thymidine, pH 7.4, 25 °C): 42 µM
Cc1c2cc3c(cc2nc2[nH]c(=O)[nH]c(=O)c12)OCO3 [Compound 2q] | – | 0 | – | –
2-[4-(2,4-Dioxo-5-methyl-3,4-dihydropyrimidine-1(2H)-yl)hexyl]-6,7-methylenedioxy-2H-pyrrolo[3,4-b]quinoline-1,3-dione [Compound 13b] | – | – | – | TP inhibition (%) at 50 µM [1, 3]: 0% at 50 µM
CCC(CCCn1c(=O)c(Br)cn(C(CC)CCCN2C(=O)c3cc4cc5c(cc4nc3C2=O)OCO5)c1=O)n1cc(Br)c(=O)[nH]c1=O (centres unmarked) [Compound 17, 2-[4-[5-Bromo-3-[4-(5-bromo-2,4-dioxo-3,4-dihydropyrimidine-1(2H)-yl)hexyl]-2,4-dioxo-3,4-dihydropyrimidine-1(2H)-yl]hexyl]-6,7-méthylènedioxy-2H-pyrrolo[3,4-b]quinoline-1,3-dione] | 144 to 148 °C | – | – | –
O=c1[nH]c(=O)c2cc3ccc(Cl)cc3nc2[nH]1 [Compound 2j] | – | 0 | 50 (≈ 12.4 µg/mL) | –
Cc1ccc2cc3c(=O)[nH]c(=O)[nH]c3nc2c1 [Compound 2b] | – | 0 | – | –

Molecule | melting point | inhibition at 50 µM [1, 3] [%] | solubility [2] [µM] | also measured
CN(C)CCCN1C(=O)c2cc3c(=O)[nH]c(=O)[nH]c3nc2C1=O (as salt: hydrochloride) [Compound 28h, 7-(3-(Dimethylamino)propyl)-1H-pyrrolo[3′,4′:5,6]pyrido [2,3-d]pyrimidine-2,4,6,8 (3H,7H)-tetraone, hydrochloride] | 309 to 311 °C | – | – | –
O=C1c2cc3c(=O)[nH]c(=O)[nH]c3nc2C(=O)N1CC1CCCCC1 [Compound 28g] | – | – | 30 (≈ 9.85 µg/mL) | inhibition at 30 µM [1]: 0%
O=c1[nH]c(=O)c2cc3ccc(OCc4ccccc4)cc3nc2[nH]1 [Compound 2f] | – | 0 | 50 (≈ 16 µg/mL) | –
COc1cc2nc3[nH]c(=O)[nH]c(=O)c3cc2c(OC)c1OC [Compound 2h] | – | – | 15 (≈ 4.55 µg/mL) | inhibition at 15 µM ([1]; 2.5% DMSO): 0%; Solubility (in words) [2]: sparingly soluble
O=C1NC(=O)c2nc3[nH]c(=O)[nH]c(=O)c3cc21 [Compound 27] | – | 0 | – | –
O=C1c2cc3c(=O)[nH]c(=O)[nH]c3nc2C(=O)N1CCc1ccccc1 [Compound 28e, 7-Phenylethyl-1H-pyrrolo[3′,4′:5,6]pyrido[2,3-d]pyrimidine-2,4,6,8(3H,7H)-tetraone] | 359 to 361 °C | 0 | – | –
CN(C)CCCN1C(=O)c2cc3c(=O)[nH]c(=O)[nH]c3nc2C1=O [Compound 28h, 7-(3-(Dimethylamino)propyl)-1H-pyrrolo[3′,4′:5,6]pyrido [2,3-d]pyrimidine-2,4,6,8 (3H,7H)-tetraone, hydrochloride] | – | 0 | – | –
O=C1c2cc3cc4c(cc3nc2C(=O)N1Cc1[nH]c(=O)[nH]c(=O)c1Cl)OCO4 [Compound 23a, 2-[(5-Chloro-2,6-dioxo-1,2,3,6-tetrahydropyrimidin-4-yl)methyl]-6,7-methylenedioxy-1H-pyrrolo[3,4-b]quinoline-1,3(2H)-dione] | 352 to 354 °C (dec.) | 0 | – | –
O=C1c2cc3c(=O)[nH]c(=O)[nH]c3nc2C(=O)N1Cc1ccc(Cl)cc1Cl [Compound 28d] | – | – | 30 (≈ 11.7 µg/mL) | inhibition at 30 µM [1]: 0%
O=c1[nH]c(=O)c2cc3c(ccc4ccccc43)nc2[nH]1 [Compound 2m] | – | 29 | – | –
COc1cc(-c2c3cc4c(cc3nc3[nH]c(=O)[nH]c(=O)c23)OCO4)cc(OC)c1OC [Compound 2r] | – | – | 25 (≈ 10.6 µg/mL) | inhibition at 25 µM ([1]; 2.5% DMSO): 0%
O=c1[nH]c(=O)c2cc3ccc(Cc4ccccc4)cc3nc2[nH]1 [Compound 2i, 8-Benzylpyrimido[4,5-b]quinoline-2,4(1H,3H)-dione] | 297 to 299 °C (dec.) | 30 | 50 (≈ 15.2 µg/mL) | –
O=C1c2cc3c(=O)[nH]c(=O)[nH]c3nc2C(=O)N1Cc1cccnc1 [Compound 28f, 7-(Pyridin-3-ylmethyl)-1H-pyrrolo[3′,4′:5,6]pyrido[2,3-d]pyrimidine-2,4,6,8(3H,7H)-tetraone] | > 360 °C | 0 | – | –
O=c1[nH]c(=O)c2cc3ccc(C(F)(F)F)cc3nc2[nH]1 [Compound 2k] | – | 0 | – | –
CN(C)c1c2cc3c(cc2nc2[nH]c(=O)[nH]c(=O)c12)OCO3 [Compound 2s, 5-Dimethylamino-7,8-methylenedioxypyrimido[4,5-b]quinoline-2,4(1H,3H)-dione] | 348 °C | – | 15 (≈ 4.5 µg/mL) | inhibition at 15 µM ([1]; 2.5% DMSO): 0%
O=C1c2cc3cc4c(cc3nc2C(=O)N1Cc1cc(=O)[nH]c(=O)[nH]1)OCO4 [Compound 22, 2-[(2,6-Dioxo-1,2,3,6-tetrahydropyrimidin-4-yl)methyl]-6,7-methylenedioxy-1H-pyrrolo[3,4-b]quinoline-1,3(2H)-dione] | 407 to 409 °C (dec.) | – | 15 (≈ 5.49 µg/mL) | inhibition at 15 µM ([1]; 2.5% DMSO): 25%; Solubility (in words) [2]: less soluble
O=c1[nH]c(=O)c2cc3ccc4cc5ccccc5cc4c3nc2[nH]1 [Compound 2o, Naphto[2,3-h]pyrimido[4,5-b]quinoline-2,4(1H,3H)-dione] | > 360 °C | – | 25 (≈ 7.83 µg/mL) | inhibition at 25 µM ([1]; 2.5% DMSO): 0%; Solubility (in words) [2]: less soluble
